According to patent US9278934B2, “Method for producing fine particles of aripiprazole anhydride crystals B” (OTSUKA PHARMACEUTICAL CO., LTD., priority 2011, dated 2016):

Experiment: Hygroscopicity: water content before and after 24 hours in a desiccator at 60° C. and humidity 100%
Format: physicochemical
Conditions: for Water content (%) after 24 hours: after 24 hours in a desiccator at a temperature of 60° C. and a humidity of 100%; for Water content (%) at the start: obtained crystals, before conditioning
Protocol: Aripiprazole anhydride crystals B have a low hygroscopicity; and, for example, maintain a water content of 0.4% or less, and further 0.1% or less, after 24 hours of conditioning in a desiccator set at a temperature of 60° C. and a humidity of 100%. Known methods for measuring water content can be used as long as they are commonly used for measuring the water content of crystals. For example, a method such as the Karl Fischer method can be used.
Fine particles of the crystals after heating treatment (drying) are the fine particles of anhydride crystals B of aripiprazole. These particles have the physicochemical properties (1) to (5) described above, and also have a low hygroscopicity; specifically, the water content thereof after 24 hours of conditioning in a desiccator adjusted to a temperature of 60° C. and a humidity of 100% is 0.4% or less, further 0.2% or less, and furthremore 0.1% or less.

SMILES | Water content (%) after 24 hours | Water content (%) after 24 hours (listed as anhydride crystals B of aripiprazole) | hygroscopicity (left to stand for 24 hours in a desiccator at 60° C. and a humidity of 100%) | Water content (%) at the start
O=C1CCc2ccc(OCCCCN3CCN(c4cccc(Cl)c4Cl)CC3)cc2N1 [Aripiprazole anhydride crystals B, 7-{4-[4-(2,3-dichlorophenyl)-1-piperazinyl]butoxy}-3,4-dihydrocarbostyril] | ≤ 0.4% | ≤ 0.4% |  | 
O=C1CCc2ccc(OCCCCN3CCN(c4cccc(Cl)c4Cl)CC3)cc2N1 [Example 1, 7-{4-[4-(2,3-dichlorophenyl)-1-piperazinyl]butoxy}-3,4-dihydrocarbostyril] | 0.10% |  | < 4% | 0.11%
O=C1CCc2ccc(OCCCCN3CCN(c4cccc(Cl)c4Cl)CC3)cc2N1 [Example 2, 7-{4-[4-(2,3-dichlorophenyl)-1-piperazinyl]butoxy}-3,4-dihydrocarbostyril] | ≤ 0.01% |  |  | 0.01%
O=C1CCc2ccc(OCCCCN3CCN(c4cccc(Cl)c4Cl)CC3)cc2N1 [Example 3, 7-{4-[4-(2,3-dichlorophenyl)-1-piperazinyl]butoxy}-3,4-dihydrocarbostyril] | 0.17% |  |  | 0.08%
